Values quoted from earlier work as cited in EP1543827A1, “EMULSION OF PERFLUORORGANIC COMPOUNDS EXHIBITING GAS-TRANSPORT PROPERTIES, A SURFACE-ACTIVE AGENT FOR SAID EMULSION AND METHOD FOR THE PRODUCTION THEREOF” (Obshestvo C Ogranichennoi Otvetstvennostiu Accent, priority 2002, dated 2004).

Settings: in vivo

In the case of perfluordecalin [PFD], the “period of PFOC semi-clearance out of the organism” value is listed as 7 days.

In the case of `FC(F)(F)C1(F)C(F)(F)C(F)(F)C(F)(N2C(F)(F)C(F)(F)C(F)(F)C(F)(F)C2(F)F)C(F)(F)C1(F)F` (centres unmarked) [PMCP, perfluoro-n-methylcyclohexylpiperidine], the “period of PFOC semi-clearance out of the organism” value is listed as 65 days.
